The target in assay [1] is Mitogen-activated protein kinase 3 (Homo sapiens, UniProt P27361).
For assay [2], the target named is T1, Breakpoint cluster region protein (Homo sapiens, UniProt P11274).
T1 sequence (P11274 whole entry): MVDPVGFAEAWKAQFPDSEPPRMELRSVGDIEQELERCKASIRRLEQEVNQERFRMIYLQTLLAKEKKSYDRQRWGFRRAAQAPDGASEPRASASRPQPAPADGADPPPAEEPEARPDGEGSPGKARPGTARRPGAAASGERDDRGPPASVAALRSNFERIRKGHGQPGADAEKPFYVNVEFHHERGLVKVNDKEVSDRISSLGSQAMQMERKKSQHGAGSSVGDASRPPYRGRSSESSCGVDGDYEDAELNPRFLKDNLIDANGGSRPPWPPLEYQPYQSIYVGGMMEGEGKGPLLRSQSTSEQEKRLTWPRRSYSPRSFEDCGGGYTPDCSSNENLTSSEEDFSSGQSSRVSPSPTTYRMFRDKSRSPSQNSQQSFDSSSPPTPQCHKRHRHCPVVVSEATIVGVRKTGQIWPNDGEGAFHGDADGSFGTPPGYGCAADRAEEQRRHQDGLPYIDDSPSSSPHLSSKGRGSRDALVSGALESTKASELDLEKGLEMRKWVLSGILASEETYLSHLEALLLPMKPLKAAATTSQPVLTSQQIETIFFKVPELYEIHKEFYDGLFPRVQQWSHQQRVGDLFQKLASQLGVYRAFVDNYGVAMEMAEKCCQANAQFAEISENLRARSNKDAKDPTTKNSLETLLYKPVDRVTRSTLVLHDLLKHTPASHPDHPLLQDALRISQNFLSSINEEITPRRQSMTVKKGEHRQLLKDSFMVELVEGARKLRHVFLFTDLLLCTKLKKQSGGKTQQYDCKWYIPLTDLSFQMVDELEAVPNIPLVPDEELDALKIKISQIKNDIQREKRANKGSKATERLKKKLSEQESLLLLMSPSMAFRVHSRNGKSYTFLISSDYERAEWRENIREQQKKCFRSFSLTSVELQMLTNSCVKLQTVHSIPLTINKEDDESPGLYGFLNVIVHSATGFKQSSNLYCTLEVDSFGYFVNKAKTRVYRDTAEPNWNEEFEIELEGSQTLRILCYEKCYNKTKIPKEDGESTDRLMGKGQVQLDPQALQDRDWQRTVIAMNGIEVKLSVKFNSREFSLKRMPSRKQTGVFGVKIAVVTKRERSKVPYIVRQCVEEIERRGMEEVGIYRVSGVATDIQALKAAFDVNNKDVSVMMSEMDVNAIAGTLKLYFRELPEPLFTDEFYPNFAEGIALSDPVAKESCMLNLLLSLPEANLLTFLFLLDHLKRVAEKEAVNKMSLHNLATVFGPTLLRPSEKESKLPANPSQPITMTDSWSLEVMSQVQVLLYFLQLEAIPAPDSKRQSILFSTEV

The target of assay [3] is Interleukin-1 receptor-associated kinase 1 (Homo sapiens, UniProt P51617).
Interleukin-1 receptor-associated kinase 1, sequence (P51617 whole entry): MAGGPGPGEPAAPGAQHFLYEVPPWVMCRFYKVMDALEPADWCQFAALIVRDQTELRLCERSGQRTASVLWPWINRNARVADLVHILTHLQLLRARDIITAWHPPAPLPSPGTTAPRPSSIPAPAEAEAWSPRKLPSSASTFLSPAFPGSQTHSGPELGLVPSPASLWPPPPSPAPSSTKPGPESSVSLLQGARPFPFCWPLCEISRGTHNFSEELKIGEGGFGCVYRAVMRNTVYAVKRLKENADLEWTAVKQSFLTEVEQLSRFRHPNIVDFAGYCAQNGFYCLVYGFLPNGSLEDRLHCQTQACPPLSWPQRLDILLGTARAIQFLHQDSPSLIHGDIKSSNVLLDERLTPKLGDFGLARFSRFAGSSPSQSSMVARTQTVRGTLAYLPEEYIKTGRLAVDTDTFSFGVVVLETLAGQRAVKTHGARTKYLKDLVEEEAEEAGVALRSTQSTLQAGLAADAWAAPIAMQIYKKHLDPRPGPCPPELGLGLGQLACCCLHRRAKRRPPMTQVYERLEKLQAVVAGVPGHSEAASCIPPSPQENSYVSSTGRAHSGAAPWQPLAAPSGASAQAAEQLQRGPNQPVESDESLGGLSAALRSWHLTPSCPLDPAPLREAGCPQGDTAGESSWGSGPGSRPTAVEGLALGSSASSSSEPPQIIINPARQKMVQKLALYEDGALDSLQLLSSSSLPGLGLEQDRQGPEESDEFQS
The target of assay [4] is Non-receptor tyrosine-protein kinase TYK2 (Homo sapiens, UniProt P29597).
Non-receptor tyrosine-protein kinase TYK2, sequence (P29597 whole entry): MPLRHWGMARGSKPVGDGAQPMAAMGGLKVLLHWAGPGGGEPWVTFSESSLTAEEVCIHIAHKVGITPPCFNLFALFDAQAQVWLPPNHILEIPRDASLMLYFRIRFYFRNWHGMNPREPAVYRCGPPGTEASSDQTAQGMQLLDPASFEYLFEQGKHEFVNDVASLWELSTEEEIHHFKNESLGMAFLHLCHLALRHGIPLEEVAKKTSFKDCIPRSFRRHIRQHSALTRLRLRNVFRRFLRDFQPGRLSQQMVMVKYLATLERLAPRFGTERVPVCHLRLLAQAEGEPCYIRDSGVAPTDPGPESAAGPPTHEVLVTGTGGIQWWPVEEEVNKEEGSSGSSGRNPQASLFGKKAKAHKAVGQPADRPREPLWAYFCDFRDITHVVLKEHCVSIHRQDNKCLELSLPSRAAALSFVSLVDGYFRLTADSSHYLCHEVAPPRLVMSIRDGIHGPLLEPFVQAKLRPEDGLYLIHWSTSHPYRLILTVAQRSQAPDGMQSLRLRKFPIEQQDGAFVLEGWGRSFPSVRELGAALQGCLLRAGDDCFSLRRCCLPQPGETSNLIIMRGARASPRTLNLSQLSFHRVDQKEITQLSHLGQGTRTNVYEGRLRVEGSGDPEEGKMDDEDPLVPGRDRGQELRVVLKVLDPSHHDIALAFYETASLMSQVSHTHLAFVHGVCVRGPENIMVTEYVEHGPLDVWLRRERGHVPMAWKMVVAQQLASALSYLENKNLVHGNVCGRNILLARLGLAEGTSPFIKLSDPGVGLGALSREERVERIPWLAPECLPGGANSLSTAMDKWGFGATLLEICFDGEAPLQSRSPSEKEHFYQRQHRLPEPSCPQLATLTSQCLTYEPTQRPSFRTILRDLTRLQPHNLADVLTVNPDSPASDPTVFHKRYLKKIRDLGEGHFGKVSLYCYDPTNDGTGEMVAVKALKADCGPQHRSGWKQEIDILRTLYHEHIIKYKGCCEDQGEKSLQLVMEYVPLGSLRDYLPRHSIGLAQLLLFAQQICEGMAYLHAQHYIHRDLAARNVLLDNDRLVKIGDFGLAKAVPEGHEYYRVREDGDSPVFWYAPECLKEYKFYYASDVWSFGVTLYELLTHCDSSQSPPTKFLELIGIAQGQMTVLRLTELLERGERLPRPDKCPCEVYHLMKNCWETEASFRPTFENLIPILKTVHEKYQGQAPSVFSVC
The target of assay [5] is Ribosomal protein S6 kinase alpha-1 (Homo sapiens, UniProt Q15418).
Ribosomal protein S6 kinase alpha-1, sequence (Q15418 whole entry): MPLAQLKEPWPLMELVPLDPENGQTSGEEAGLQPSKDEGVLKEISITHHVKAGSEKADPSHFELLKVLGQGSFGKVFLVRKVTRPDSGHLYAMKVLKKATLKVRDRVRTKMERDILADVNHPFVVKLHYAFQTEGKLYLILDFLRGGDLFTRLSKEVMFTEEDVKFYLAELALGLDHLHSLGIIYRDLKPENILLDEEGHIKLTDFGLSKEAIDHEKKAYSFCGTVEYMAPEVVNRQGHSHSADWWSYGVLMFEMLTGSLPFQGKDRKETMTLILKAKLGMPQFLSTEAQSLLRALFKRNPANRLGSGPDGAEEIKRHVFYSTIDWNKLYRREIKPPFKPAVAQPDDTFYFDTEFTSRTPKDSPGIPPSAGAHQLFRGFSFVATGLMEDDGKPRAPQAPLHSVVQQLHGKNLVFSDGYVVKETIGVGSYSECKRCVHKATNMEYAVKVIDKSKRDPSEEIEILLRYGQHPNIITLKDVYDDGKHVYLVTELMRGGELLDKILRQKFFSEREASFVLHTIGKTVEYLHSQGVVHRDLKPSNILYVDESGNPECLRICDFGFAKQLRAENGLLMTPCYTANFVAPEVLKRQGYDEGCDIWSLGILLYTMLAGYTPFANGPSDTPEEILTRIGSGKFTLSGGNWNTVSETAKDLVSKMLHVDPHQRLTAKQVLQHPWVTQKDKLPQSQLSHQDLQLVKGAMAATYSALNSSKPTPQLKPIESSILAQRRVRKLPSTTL
Assay [6] concerns the target T2, Serine/threonine-protein kinase Chk1 (Homo sapiens, UniProt O14757).
T2 sequence (O14757 whole entry): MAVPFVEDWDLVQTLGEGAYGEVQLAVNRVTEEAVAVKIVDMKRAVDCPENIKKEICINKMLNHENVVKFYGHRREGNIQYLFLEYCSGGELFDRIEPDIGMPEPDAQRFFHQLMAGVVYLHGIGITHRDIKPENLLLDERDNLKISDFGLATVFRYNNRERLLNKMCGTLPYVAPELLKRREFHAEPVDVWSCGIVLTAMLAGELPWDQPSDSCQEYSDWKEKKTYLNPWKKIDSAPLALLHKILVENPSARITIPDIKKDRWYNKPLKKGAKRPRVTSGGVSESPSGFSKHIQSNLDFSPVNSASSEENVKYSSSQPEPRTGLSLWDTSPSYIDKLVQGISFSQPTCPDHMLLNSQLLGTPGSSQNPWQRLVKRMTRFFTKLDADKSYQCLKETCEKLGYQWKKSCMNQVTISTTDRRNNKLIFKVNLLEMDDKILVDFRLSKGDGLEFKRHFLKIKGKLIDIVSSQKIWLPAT

Assay [7] concerns the target Serine/threonine-protein kinase/endoribonuclease IRE1 (Homo sapiens, UniProt O75460).
The target of assay [8] is T3, Phosphorylase b kinase gamma catalytic chain, liver/testis isoform (Homo sapiens, UniProt P15735).
T3 sequence (P15735 whole entry): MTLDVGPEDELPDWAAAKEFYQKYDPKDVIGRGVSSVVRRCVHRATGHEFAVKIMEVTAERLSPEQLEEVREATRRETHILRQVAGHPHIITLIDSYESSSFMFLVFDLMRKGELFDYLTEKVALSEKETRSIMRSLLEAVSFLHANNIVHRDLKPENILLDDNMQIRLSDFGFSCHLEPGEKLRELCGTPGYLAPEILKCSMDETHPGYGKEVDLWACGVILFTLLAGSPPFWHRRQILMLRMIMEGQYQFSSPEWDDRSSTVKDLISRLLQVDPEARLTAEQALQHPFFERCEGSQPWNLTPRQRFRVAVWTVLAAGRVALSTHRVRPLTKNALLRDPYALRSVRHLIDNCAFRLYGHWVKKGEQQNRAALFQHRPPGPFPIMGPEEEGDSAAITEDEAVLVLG

In assay [9] the target is T4, ADP/ATP translocase 2 (Homo sapiens, UniProt P05141).
T4 sequence (P05141 whole entry): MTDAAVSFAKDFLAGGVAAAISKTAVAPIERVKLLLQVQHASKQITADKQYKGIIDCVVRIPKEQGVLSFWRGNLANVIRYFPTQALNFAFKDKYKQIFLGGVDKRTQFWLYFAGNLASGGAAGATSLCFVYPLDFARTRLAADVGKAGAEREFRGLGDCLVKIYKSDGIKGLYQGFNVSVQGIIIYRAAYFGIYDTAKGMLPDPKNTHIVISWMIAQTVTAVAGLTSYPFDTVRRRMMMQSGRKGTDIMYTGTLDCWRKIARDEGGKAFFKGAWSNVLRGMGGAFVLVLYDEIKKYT

For assay [10], the target named is Putative heat shock protein HSP 90-beta 2 (Homo sapiens, UniProt Q58FF8).
Putative heat shock protein HSP 90-beta 2, sequence (Q58FF8 whole entry): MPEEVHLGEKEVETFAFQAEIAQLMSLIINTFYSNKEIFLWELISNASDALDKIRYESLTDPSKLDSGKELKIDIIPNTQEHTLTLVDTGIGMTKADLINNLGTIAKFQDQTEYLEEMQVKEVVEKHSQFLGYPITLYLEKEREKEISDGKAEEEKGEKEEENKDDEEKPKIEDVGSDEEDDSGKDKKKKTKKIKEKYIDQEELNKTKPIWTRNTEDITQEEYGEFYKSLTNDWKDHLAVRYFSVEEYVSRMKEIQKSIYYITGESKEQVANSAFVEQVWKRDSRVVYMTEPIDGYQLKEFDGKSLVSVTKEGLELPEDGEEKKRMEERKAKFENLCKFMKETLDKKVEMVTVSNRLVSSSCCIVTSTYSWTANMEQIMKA

SMILES strings stand for the structures. Active and inactive are the calls of the source. For most assays here, no stated cut-off is given here; in the data, actives have a measured Kd and inactives only a lower limit.

Mitogen-activated protein kinase 3, sequence (P27361 whole entry): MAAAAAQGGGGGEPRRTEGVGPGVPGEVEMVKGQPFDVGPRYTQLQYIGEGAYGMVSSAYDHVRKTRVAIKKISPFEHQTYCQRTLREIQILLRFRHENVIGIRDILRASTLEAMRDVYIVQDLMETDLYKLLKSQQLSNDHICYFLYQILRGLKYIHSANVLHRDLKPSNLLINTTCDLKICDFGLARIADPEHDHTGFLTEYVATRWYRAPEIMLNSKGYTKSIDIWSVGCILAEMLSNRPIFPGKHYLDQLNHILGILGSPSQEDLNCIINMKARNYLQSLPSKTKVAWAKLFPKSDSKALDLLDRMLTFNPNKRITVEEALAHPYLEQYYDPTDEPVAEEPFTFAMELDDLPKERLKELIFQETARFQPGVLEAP
Serine/threonine-protein kinase/endoribonuclease IRE1, sequence (O75460 whole entry, canonical isoform): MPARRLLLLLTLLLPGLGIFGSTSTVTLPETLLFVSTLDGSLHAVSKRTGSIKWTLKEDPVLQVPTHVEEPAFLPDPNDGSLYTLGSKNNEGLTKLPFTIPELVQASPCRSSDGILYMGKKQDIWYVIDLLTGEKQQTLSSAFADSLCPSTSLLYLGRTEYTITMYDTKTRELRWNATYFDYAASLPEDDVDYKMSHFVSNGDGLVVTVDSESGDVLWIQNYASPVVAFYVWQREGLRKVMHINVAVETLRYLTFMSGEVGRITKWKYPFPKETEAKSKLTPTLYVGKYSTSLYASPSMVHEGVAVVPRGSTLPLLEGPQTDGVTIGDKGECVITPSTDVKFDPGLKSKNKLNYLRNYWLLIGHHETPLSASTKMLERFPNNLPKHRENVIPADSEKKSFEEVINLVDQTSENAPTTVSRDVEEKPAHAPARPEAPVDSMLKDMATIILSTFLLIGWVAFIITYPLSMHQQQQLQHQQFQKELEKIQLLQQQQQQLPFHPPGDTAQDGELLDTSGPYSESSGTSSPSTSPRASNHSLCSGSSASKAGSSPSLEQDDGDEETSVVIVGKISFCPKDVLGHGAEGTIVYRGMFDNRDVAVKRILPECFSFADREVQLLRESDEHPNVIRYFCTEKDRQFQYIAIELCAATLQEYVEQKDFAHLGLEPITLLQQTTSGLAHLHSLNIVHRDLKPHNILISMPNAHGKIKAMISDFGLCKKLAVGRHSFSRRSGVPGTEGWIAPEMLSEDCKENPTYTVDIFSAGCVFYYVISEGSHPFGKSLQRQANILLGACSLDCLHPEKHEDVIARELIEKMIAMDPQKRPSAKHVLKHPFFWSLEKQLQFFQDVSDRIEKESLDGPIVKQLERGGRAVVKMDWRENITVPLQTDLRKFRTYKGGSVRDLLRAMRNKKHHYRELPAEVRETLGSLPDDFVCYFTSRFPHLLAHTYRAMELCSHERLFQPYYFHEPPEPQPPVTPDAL

For `CCc1cc2c(cc1N1CCC(N3CCOCC3)CC1)C(C)(C)c1[nH]c3cc(C#N)ccc3c1C2=O` [ALECTINIB], the Kd in assay [1], in [2], in assay [3], in assay [4], in assay [5] and in assay [6] was > 30 µM (inactive) throughout. Besides, the Kd (usually the free concentration of one partner at which half of the binding sites on the other are occupied at equilibrium, for simple one-to-one binding) in [7] is > 30 µM (inactive); in assay [8] it was 1.71 µM (active); in assay [9] it was > 30 µM (inactive); in [10], > 30 µM (inactive).

As to `C#Cc1cccc(Nc2ncnc3cc4c(cc23)OCCOCCOCCO4)c1` [ICOTINIB], the Kd in assay [1], in assay [2], in assay [3], in assay [4], in assay [5] and in assay [6] was > 30 µM (inactive) throughout. Moreover, the Kd in assay [7], in assay [8], in [9] and in assay [10] was > 30 µM (inactive) in each case.

Turning to `Cn1c(=O)c(F)c(Nc2ccc(I)cc2F)c2c(=O)n(C[C@@H](O)CO)cnc21` [TAK-733], the Kd in assay [1], in assay [2], in assay [3], in assay [4], in assay [5] and in assay [6] was > 30 µM (inactive) throughout. In addition, the Kd in [7], in assay [8], in assay [9] and in assay [10] was > 30 µM (inactive) throughout.

Consider `COc1cc2ncnc3c2cc1OCCCCCN(C)Cc1ccc(Br)cc1N3` [JNJ-26483327], for which the Kd in [1], in assay [2], in [3], in assay [4], in assay [5] and in assay [6] was > 30 µM (inactive) in each case. Besides, the Kd in [7], in [8], in assay [9] and in [10] was > 30 µM (inactive) in each case.

As for `FC(F)(F)c1ccc(CNc2ccc(Cc3c[nH]c4ncc(Cl)cc34)cn2)cn1` [PEXIDARTINIB], the Kd in [1], in assay [2], in [3], in assay [4], in assay [5] and in [6] was > 30 µM (inactive) each time. Also, the Kd in [7], in assay [8], in assay [9] and in assay [10] was > 30 µM (inactive) throughout.

Take `COc1ccc2c(OCc3nnc4ccc(-c5ccccc5)nn34)ccnc2c1` [AMG-208]: the Kd in [1], in assay [2], in assay [3], in [4], in assay [5] and in [6] was > 30 µM (inactive) throughout. Also, the Kd in assay [7], in assay [8], in assay [9] and in assay [10] was > 30 µM (inactive) each time.

For the molecule `Cc1cc(-c2cc(OC(=O)c3ccccc3)ccc2Cl)cc2nnc(Nc3ccc(OCCN4CCCC4)cc3)nc12` [TG100-801], the Kd was > 30 µM (inactive) in assay [1]; 0.065 µM (active) in assay [2]; > 30 µM (inactive) in assay [3]; > 30 µM (inactive) in assay [4]; > 30 µM (inactive) in assay [5]; > 30 µM (inactive) in [6]. The Kd in assay [7], in assay [8], in assay [9] and in assay [10] was > 30 µM (inactive) each time.
